Assay results taken from publication PMC3399817 (PLoS ONE, 2012).

Experiments:
Assay in all cases: KINOMEscan
Type in all cases: binding
[1] = molecular target: T1, YSK4 (Homo sapiens, UniProt Q56UN5); settings: YSK4, 1 uM
T1 construct: purchased Ambit KINOMEscan (DiscoverX)
Method in brief: (§1)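 First-pass selectivity screen: compound at 1 μM, endpoint is whether substrate binding to each kinase is suppressed.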

[2] = molecular target: T2, EPHB3 (Homo sapiens, UniProt P54753); settings: EPHB3, 1 uM
T2 construct: purchased Ambit KINOMEscan (DiscoverX)
Method in brief: as §1

[3] = molecular target: T3, HIPK1 (Homo sapiens, UniProt Q86Z02); settings: for % binding compared to no inhibitor control: HIPK1, 1 uM
T3 construct: purchased Ambit KINOMEscan (DiscoverX)
Method in brief: as §1

[4] = molecular target: T4, CIT (Homo sapiens, UniProt O14578); settings: 1 uM
T4 construct: purchased Ambit KINOMEscan (DiscoverX)
Method in brief: as §1

[5] = molecular target: T5, PAK1 (Homo sapiens, UniProt Q13153); settings: PAK1, 1 uM
T5 construct: purchased Ambit KINOMEscan (DiscoverX)
Method in brief: as §1

[6] = molecular target: T6, ROS1 (Homo sapiens, UniProt P08922); settings: ROS1, 1 uM
T6 construct: purchased Ambit KINOMEscan (DiscoverX)
Method in brief: as §1

[7] = molecular target: T7, LATS2 (Homo sapiens, UniProt Q9NRM7); settings: LATS2, 1 uM
T7 construct: purchased Ambit KINOMEscan (DiscoverX)
Method in brief: as §1

[8] = molecular target: T8, CSF1R (Homo sapiens, UniProt P07333); settings: 1 uM
T8 construct: purchased Ambit KINOMEscan (DiscoverX)
Method in brief: as §1

[9] = molecular target: T9, ABL1(E255K)-phosphorylated (Homo sapiens, UniProt P00519, E255K); settings: 1 uM
T9 construct: purchased Ambit KINOMEscan (DiscoverX)
Method in brief: as §1

[10] = molecular target: T10, DYRK2 (Homo sapiens, UniProt Q92630); settings: DYRK2, 1 uM
T10 construct: purchased Ambit KINOMEscan (DiscoverX)
Method in brief: as §1

[11] = molecular target: T11, AKT3 (Homo sapiens, UniProt Q9Y243); settings: AKT3, 1 uM
T11 construct: purchased Ambit KINOMEscan (DiscoverX)
Method in brief: as §1

[12] = molecular target: T12, EGFR (Homo sapiens, UniProt P00533); settings: 1 uM
T12 construct: purchased Ambit KINOMEscan (DiscoverX)
Method in brief: as §1

[13] = molecular target: T13, CDK2 (Homo sapiens, UniProt P24941); settings: CDK2, 1 uM
T13 construct: purchased Ambit KINOMEscan (DiscoverX)
Method in brief: as §1

[14] = molecular target: T14, PLK2 (Homo sapiens, UniProt Q9NYY3); settings: PLK2, 1 uM
T14 construct: purchased Ambit KINOMEscan (DiscoverX)
Method in brief: as §1

[15] = molecular target: T15, BTK (Homo sapiens, UniProt Q06187); settings: 1 uM
T15 construct: purchased Ambit KINOMEscan (DiscoverX)
Method in brief: as §1

[16] = molecular target: T16, JNK3 (Homo sapiens, UniProt P53779); settings: JNK3, 1 uM
T16 construct: purchased Ambit KINOMEscan (DiscoverX)
Method in brief: as §1

[17] = molecular target: T17, SgK110 (Homo sapiens, UniProt P0C264); settings: SgK110, 1 uM
T17 construct: purchased Ambit KINOMEscan (DiscoverX)
Method in brief: as §1

[18] = molecular target: T18, JAK1(JH2domain-pseudokinase) (Homo sapiens, UniProt P23458); settings: 1 uM
T18 construct: JAK1(JH2domain-pseudokinase); purchased Ambit KINOMEscan (DiscoverX)
Method in brief: as §1

[19] = molecular target: T19, PHKG1 (Homo sapiens, UniProt Q16816); settings: PHKG1, 1 uM
T19 construct: purchased Ambit KINOMEscan (DiscoverX)
Method in brief: as §1

[20] = molecular target: T20, PRKCD (Homo sapiens, UniProt Q05655); settings: 1 uM
T20 construct: purchased Ambit KINOMEscan (DiscoverX)
Method in brief: as §1

[21] = molecular target: T21, NDR1 (Homo sapiens, UniProt Q15208); settings: NDR1, 1 uM
T21 construct: purchased Ambit KINOMEscan (DiscoverX)
Method in brief: as §1

[22] = molecular target: T22, LOK (Homo sapiens, UniProt O94804); settings: 1 uM
T22 construct: purchased Ambit KINOMEscan (DiscoverX)
Method in brief: as §1

[23] = molecular target: T23, FLT1 (Homo sapiens, UniProt P17948); settings: FLT1, 1 uM
T23 construct: purchased Ambit KINOMEscan (DiscoverX)
Method in brief: as §1

[24] = molecular target: T24, GRK7 (Homo sapiens, UniProt Q8WTQ7); settings: GRK7, 1 uM
T24 construct: purchased Ambit KINOMEscan (DiscoverX)
Method in brief: as §1

[25] = molecular target: T25, VEGFR2 (Homo sapiens, UniProt P35968); settings: VEGFR2, 1 uM
T25 construct: purchased Ambit KINOMEscan (DiscoverX)
Method in brief: as §1

[26] = molecular target: T26, SYK (Homo sapiens, UniProt P43405); settings: for % binding compared to no inhibitor control: 1 uM
T26 construct: purchased Ambit KINOMEscan (DiscoverX)
Method in brief: as §1

[27] = molecular target: T27, CSNK1G3 (Homo sapiens, UniProt Q9Y6M4); settings: CSNK1G3, 1 uM
T27 construct: purchased Ambit KINOMEscan (DiscoverX)
Method in brief: as §1

[28] = molecular target: T28, FER (Homo sapiens, UniProt P16591); settings: 1 uM
T28 construct: purchased Ambit KINOMEscan (DiscoverX)
Method in brief: as §1

[29] = molecular target: T29, DDR2 (Homo sapiens, UniProt Q16832); settings: DDR2, 1 uM
T29 construct: purchased Ambit KINOMEscan (DiscoverX)
Method in brief: as §1

[30] = molecular target: T30, BRK (Homo sapiens, UniProt Q13882); settings: 1 uM
T30 construct: purchased Ambit KINOMEscan (DiscoverX)
Method in brief: as §1

[31] = molecular target: T31, INSR (Homo sapiens, UniProt P06213); settings: 1 uM
T31 construct: purchased Ambit KINOMEscan (DiscoverX)
Method in brief: as §1

[32] = molecular target: T32, FGFR1 (Homo sapiens, UniProt P11362); settings: FGFR1, 1 uM
T32 construct: purchased Ambit KINOMEscan (DiscoverX)
Method in brief: as §1

[33] = molecular target: T33, DAPK1 (Homo sapiens, UniProt P53355); settings: DAPK1, 1 uM
T33 construct: purchased Ambit KINOMEscan (DiscoverX)
Method in brief: as §1

[34] = molecular target: T34, EPHA3 (Homo sapiens, UniProt P29320); settings: EPHA3, 1 uM
T34 construct: purchased Ambit KINOMEscan (DiscoverX)
Method in brief: as §1

[35] = molecular target: T35, PRKX (Homo sapiens, UniProt P51817); settings: 1 uM
T35 construct: purchased Ambit KINOMEscan (DiscoverX)
Method in brief: as §1

[36] = molecular target: T36, p38-beta (Homo sapiens, UniProt Q15759); settings: 1 uM
T36 construct: purchased Ambit KINOMEscan (DiscoverX)
Method in brief: as §1

[37] = molecular target: T37, NIM1 (Homo sapiens, UniProt Q8IY84); settings: NIM1, 1 uM
T37 construct: purchased Ambit KINOMEscan (DiscoverX)
Method in brief: as §1

[38] = molecular target: T38, DLK (Homo sapiens, UniProt Q12852); settings: 1 uM
T38 construct: purchased Ambit KINOMEscan (DiscoverX)
Method in brief: as §1

[39] = molecular target: T39, FYN (Homo sapiens, UniProt P06241); settings: 1 uM
T39 construct: purchased Ambit KINOMEscan (DiscoverX)
Method in brief: as §1

[40] = molecular target: T40, NEK9 (Homo sapiens, UniProt Q8TD19); settings: NEK9, 1 uM
T40 construct: purchased Ambit KINOMEscan (DiscoverX)
Method in brief: as §1

T3 sequence (Q86Z02 whole entry): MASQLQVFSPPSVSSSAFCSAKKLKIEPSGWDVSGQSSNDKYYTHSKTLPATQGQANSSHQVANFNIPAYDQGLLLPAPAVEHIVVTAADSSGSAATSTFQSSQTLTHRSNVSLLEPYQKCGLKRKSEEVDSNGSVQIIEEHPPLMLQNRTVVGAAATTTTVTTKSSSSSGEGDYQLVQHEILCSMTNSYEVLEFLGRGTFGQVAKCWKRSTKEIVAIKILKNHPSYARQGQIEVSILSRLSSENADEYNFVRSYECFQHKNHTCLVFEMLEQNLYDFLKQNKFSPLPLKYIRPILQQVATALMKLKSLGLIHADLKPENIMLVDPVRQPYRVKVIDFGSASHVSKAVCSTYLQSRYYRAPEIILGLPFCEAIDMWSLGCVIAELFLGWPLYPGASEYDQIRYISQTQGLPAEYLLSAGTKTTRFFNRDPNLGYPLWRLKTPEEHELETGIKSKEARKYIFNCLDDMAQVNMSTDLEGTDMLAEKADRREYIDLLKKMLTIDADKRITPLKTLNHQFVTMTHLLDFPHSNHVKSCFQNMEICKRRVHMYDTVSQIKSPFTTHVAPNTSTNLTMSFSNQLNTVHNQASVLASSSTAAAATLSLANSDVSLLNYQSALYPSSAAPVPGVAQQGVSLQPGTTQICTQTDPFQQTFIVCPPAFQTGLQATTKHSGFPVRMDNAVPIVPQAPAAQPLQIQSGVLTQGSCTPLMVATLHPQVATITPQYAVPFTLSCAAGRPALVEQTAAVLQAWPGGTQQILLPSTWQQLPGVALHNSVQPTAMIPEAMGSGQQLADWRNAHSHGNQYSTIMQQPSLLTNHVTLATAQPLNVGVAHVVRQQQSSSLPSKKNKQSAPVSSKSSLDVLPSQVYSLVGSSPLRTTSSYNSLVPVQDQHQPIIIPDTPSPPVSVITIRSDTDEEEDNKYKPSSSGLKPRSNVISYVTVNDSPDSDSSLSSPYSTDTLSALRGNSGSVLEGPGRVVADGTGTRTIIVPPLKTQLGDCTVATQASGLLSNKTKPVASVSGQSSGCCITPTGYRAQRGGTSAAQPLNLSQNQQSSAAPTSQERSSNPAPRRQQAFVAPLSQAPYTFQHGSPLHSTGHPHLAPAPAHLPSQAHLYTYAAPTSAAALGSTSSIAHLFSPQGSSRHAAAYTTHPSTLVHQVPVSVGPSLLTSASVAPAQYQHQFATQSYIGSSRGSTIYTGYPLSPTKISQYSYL
T31 sequence (P06213 28-1382): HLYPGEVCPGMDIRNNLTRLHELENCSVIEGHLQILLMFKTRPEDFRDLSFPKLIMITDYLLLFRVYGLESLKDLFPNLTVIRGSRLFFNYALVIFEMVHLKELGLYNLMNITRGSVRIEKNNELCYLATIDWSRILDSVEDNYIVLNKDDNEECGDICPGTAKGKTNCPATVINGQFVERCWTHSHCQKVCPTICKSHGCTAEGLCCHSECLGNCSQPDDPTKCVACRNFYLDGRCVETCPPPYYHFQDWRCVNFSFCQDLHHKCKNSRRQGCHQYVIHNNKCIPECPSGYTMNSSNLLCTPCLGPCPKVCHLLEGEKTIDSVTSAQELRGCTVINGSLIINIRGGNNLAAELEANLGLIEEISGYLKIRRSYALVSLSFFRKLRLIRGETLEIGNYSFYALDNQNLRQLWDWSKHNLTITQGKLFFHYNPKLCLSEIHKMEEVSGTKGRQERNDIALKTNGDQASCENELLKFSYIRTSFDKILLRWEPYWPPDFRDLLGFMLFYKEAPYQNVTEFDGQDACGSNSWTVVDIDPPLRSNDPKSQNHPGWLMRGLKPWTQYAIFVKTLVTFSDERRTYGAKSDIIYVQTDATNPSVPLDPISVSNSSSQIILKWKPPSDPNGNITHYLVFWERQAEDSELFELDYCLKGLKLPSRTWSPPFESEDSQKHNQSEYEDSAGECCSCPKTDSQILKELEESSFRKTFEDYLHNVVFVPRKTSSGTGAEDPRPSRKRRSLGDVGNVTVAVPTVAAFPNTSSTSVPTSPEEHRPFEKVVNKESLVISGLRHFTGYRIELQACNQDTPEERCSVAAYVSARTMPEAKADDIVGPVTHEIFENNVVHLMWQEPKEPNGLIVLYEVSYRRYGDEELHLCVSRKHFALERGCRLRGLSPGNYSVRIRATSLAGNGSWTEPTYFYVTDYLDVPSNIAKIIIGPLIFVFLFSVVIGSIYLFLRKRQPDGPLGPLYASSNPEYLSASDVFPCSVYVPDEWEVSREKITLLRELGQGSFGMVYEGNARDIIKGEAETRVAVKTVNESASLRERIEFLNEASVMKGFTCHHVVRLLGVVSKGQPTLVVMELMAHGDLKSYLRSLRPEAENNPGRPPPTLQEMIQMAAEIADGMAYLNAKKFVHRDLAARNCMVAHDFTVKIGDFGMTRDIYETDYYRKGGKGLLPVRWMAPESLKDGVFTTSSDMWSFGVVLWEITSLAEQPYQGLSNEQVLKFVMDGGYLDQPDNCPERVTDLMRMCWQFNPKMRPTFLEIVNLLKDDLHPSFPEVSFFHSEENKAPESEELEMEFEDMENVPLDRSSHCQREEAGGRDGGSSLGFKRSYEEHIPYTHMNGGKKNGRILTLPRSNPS
T1 sequence (Q56UN5 whole entry): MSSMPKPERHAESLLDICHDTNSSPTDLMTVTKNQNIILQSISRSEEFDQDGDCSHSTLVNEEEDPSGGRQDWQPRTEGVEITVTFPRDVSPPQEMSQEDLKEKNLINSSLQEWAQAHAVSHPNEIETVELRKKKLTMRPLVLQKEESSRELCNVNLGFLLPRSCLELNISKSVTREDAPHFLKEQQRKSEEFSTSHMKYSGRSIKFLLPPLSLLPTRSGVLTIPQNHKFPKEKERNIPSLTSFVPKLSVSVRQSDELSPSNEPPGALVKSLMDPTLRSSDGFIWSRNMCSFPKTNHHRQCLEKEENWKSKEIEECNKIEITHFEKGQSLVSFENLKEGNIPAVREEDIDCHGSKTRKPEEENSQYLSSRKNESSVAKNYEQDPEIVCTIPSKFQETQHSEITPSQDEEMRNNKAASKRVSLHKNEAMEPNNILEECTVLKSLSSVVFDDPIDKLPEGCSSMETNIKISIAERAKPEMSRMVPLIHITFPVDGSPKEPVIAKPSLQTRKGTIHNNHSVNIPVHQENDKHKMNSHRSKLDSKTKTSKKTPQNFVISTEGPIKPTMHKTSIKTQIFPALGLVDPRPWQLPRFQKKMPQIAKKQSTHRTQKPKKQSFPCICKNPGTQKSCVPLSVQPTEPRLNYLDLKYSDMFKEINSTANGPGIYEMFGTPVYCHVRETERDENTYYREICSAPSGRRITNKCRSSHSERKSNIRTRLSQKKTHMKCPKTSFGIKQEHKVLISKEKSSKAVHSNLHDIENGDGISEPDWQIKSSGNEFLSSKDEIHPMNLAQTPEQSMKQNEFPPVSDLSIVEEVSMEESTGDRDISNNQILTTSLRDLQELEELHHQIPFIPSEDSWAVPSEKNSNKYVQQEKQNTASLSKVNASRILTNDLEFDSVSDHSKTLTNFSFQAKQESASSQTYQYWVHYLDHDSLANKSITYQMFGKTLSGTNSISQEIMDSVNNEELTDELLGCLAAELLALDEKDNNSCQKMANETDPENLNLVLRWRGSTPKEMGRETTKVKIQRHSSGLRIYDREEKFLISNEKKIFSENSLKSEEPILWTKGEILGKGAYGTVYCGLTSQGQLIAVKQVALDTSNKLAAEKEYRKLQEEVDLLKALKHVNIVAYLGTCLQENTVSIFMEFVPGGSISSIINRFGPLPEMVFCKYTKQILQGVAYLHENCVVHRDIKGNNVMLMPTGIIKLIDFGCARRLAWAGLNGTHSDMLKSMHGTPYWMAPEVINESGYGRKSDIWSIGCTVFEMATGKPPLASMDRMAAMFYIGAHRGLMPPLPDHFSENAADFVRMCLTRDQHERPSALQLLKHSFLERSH
T27 sequence (Q9Y6M4 whole entry): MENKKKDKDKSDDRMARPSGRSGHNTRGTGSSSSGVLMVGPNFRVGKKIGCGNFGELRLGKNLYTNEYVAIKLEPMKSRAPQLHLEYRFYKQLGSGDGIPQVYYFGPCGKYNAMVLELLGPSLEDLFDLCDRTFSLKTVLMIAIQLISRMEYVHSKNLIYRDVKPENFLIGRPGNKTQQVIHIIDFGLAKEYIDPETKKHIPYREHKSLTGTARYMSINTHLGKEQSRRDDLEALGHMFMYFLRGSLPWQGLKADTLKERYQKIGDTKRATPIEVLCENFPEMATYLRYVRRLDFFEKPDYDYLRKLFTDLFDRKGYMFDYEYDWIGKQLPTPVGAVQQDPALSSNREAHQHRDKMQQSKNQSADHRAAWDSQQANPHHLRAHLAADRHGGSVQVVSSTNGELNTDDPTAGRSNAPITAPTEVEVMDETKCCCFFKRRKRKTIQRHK
T37 sequence (Q8IY84 whole entry): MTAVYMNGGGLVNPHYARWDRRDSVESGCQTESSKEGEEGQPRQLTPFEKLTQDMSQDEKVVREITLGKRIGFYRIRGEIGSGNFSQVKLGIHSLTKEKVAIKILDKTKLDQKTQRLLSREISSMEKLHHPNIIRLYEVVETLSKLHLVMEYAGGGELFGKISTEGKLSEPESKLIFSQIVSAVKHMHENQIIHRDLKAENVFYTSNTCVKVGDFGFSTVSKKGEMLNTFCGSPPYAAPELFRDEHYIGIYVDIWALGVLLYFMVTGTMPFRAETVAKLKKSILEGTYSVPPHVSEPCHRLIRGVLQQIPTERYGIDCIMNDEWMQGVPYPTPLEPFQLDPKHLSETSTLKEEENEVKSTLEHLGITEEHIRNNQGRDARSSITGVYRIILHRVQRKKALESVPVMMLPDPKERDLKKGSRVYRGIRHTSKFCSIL
T18 sequence (P23458 583-855 limits assumed): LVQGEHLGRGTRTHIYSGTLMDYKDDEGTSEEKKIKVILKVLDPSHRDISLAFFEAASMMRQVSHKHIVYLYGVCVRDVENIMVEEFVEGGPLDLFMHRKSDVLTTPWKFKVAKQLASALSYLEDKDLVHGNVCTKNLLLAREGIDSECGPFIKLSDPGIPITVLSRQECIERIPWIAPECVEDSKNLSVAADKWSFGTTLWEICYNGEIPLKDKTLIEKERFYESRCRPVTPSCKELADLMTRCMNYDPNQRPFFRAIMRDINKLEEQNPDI

## COc1ccc(-c2cc3nccn3c(Nc3ncccc3C(N)=O)n2)cc1OC.Cl.Cl [BAY61-3606, 2-[7-(3,4-dimethoxyphenyl)-imidazo [1,2-c]pyrimidin-5-ylamino] nicotinamide dihydrochloride, reference compound]
[1]
  % binding compared to no inhibitor control: 1.8%
[2]
  % binding compared to no inhibitor control: 98%
[3]
  % binding compared to no inhibitor control: 8.8%
[3]; HIPK1, KINOMEscan, 1 μM
  % inhibition ATP binding: 91.2%
[4]
  % binding compared to no inhibitor control: 0.4%
[5]
  % binding compared to no inhibitor control: 94%
[6]
  % binding compared to no inhibitor control: 45%
[7]
  % binding compared to no inhibitor control: 45%
[8]
  % binding compared to no inhibitor control: 51%
[9]
  % binding compared to no inhibitor control: 100%
[10]
  % binding compared to no inhibitor control: 24%
[11]
  % binding compared to no inhibitor control: 90%
[12]
  % binding compared to no inhibitor control: 87%
[13]
  % binding compared to no inhibitor control: 86%
[14]
  % binding compared to no inhibitor control: 50%
[15]
  % binding compared to no inhibitor control: 50%
[16]
  % binding compared to no inhibitor control: 41%
[17]
  % binding compared to no inhibitor control: 100%
[18]
  % binding compared to no inhibitor control: 80%
[19]
  % binding compared to no inhibitor control: 79%
[20]
  % binding compared to no inhibitor control: 94%
[21]
  % binding compared to no inhibitor control: 80%
[22]
  % binding compared to no inhibitor control: 83%
[23]
  % binding compared to no inhibitor control: 100%
[24]
  % binding compared to no inhibitor control: 59%
[25]
  % binding compared to no inhibitor control: 94%
[26]
  % binding compared to no inhibitor control: 6.1%
[26]; KINOMEscan, 1 μM
  % inhibition ATP binding: 93.9%
[27]
  % binding compared to no inhibitor control: 81%
[28]
  % binding compared to no inhibitor control: 69%
[29]
  % binding compared to no inhibitor control: 74%
[30]
  % binding compared to no inhibitor control: 87%
[31]
  % binding compared to no inhibitor control: 60%
[32]
  % binding compared to no inhibitor control: 93%
[33]
  % binding compared to no inhibitor control: 66%
[34]
  % binding compared to no inhibitor control: 83%
[35]
  % binding compared to no inhibitor control: 75%
[36]
  % binding compared to no inhibitor control: 100%
[37]
  % binding compared to no inhibitor control: 88%
[38]
  % binding compared to no inhibitor control: 87%
[39]
  % binding compared to no inhibitor control: 100%
[40]
  % binding compared to no inhibitor control: 90%

## COc1ccccc1Nc1nc(-c2ccc(OC)c(OC)c2)cc2nccn12 [BAY derivative 6]
[1]
  % binding compared to no inhibitor control: 60%
[2]
  % binding compared to no inhibitor control: 84%
[3]
  % binding compared to no inhibitor control: 85%
[4]
  % binding compared to no inhibitor control: 95%
[5]
  % binding compared to no inhibitor control: 83%
[6]
  % binding compared to no inhibitor control: 36%
[7]
  % binding compared to no inhibitor control: 88%
[8]
  % binding compared to no inhibitor control: 42%
[9]
  % binding compared to no inhibitor control: 60%
[10]
  % binding compared to no inhibitor control: 56%
[11]
  % binding compared to no inhibitor control: 100%
[12]
  % binding compared to no inhibitor control: 100%
[13]
  % binding compared to no inhibitor control: 100%
[14]
  % binding compared to no inhibitor control: 100%
[15]
  % binding compared to no inhibitor control: 60%
[16]
  % binding compared to no inhibitor control: 100%
[17]
  % binding compared to no inhibitor control: 100%
[18]
  % binding compared to no inhibitor control: 1.2%
[19]
  % binding compared to no inhibitor control: 100%
[20]
  % binding compared to no inhibitor control: 100%
[21]
  % binding compared to no inhibitor control: 100%
[22]
  % binding compared to no inhibitor control: 53%
[23]
  % binding compared to no inhibitor control: 100%
[24]
  % binding compared to no inhibitor control: 100%
[25]
  % binding compared to no inhibitor control: 100%
[26]
  % binding compared to no inhibitor control: 48%
[27]
  % binding compared to no inhibitor control: 100%
[28]
  % binding compared to no inhibitor control: 100%
[29]
  % binding compared to no inhibitor control: 100%
[30]
  % binding compared to no inhibitor control: 59%
[31]
  % binding compared to no inhibitor control: 99%
[32]
  % binding compared to no inhibitor control: 100%
[33]
  % binding compared to no inhibitor control: 76%
[34]
  % binding compared to no inhibitor control: 100%
[35]
  % binding compared to no inhibitor control: 73%
[36]
  % binding compared to no inhibitor control: 80%
[37]
  % binding compared to no inhibitor control: 100%
[38]
  % binding compared to no inhibitor control: 100%
[39]
  % binding compared to no inhibitor control: 61%
[40]
  % binding compared to no inhibitor control: 100%
